Measured values: US20120101099A1, “HISTONE DEACETYLASE INHIBITORS” (ANTHEM BIOSCIENCES PRIVATE LIMITED, priority 2009, published 2012)

What was measured:
[1] = Oral bioavailability and pharmacokinetics studies; format: in vivo, male Balb/c mice; conditions: male Balb/c mouse
Method: The studies were performed to determine the oral bioavailability and pharmacokinetics of test compounds in male Balb/c mice. Study was performed after obtaining the Institutional Animal Ethics Committee (IAEC) permission. Mice aged 5 to 6 weeks weighing around 25 to 30 g were used for this study. The animals were fasted overnight with free access to water. Animals were administered test compounds by oral route at a 50 mg/kg body weight (formulation: 0.5% methylcellulose in water and 0.1% tween 80. Dose volume 10 ml/kg b.w.) or intravenous route at a dose 10 mg/kg b.w. […] (formulation: 0.9% saline. Dose volume 10 ml/kg b.w.) Blood samples were collected at various time points during the next 24 hours post dose. The blood samples were centrifuged at 3000 g for 5 minutes at 4° C. and the corresponding plasma samples were collected in clean pre-labeled tubes. Then, each sample was subjected to a suitable extraction method and analysed by LC-MS/MS (API 3200 LC-MS/MS system). Data was analyzed using WinNonlin version 5.2 (Pharsight).

[2] = system: A549 human lung xenograft; assay: In vivo anti-cancer activity using a human tumor xenograft; parameters: species or system athymic nude mice (nu/nu); conditions: for % TGI on Day 21: p.o, once daily
Method: The study was carried out in athymic nude mice (nu/nu) of BALB-c background at age 6-8 weeks. The animals were maintained in Individually Ventilated cages in a protected and controlled environment. All animal handling and procedures were carried out in a laminar air flow hood, under anesthesia when necessary. The studies were conducted in compliance with protocols approved by Anthem Biosciences Institutional Animal Ethics Committee (IAEC).
Human cell lines derived from tumors of lung were selected for evaluation. The tumor cells cell lines were grown and expanded in RPMI 1640 (supplemented with 1.5 mM L-glutamine and 10% FBS) Subconfluent monolayers were harvested, pelleted and resuspended in RPMI 1640 medium prior to counting on a haemocytometer. Viable cells were counted using trypan blue exclusion and a cell suspension was made in cold media with a concentration of 5×10^6/ml.
[…] of the cell suspension containing 10^6 cells of greater than 90% viability was mixed with an equal volume of Matrigel (10 mg/ml) in PBS (pH7.4) and was kept at 4 deg C. Nude mice were anaesthetized and were injected subcutaneously in the flank region with 0.1 ml using a 25 gauge needle. Animals were monitored daily during the period between inoculation and palpable tumor growth. Tumor size was measured with a digital Vernier caliper and tumor-bearing mice were randomized into control and treatment groups (n=10) when sufficient tumor volume was attained (approx. 100 mm3). The following formula was used to calculate the tumor volume:
Tumor volume=(length×width2)/2.
[…] Tumor volume and was body weight was measured three times per week.

[3] = biological target: T1, HDAC2 (Homo sapiens, UniProt Q92769); assay: biochemical
T1 construct: purchased Biomol, USA
Method: Assay was performed in 96-well black microplate and total volume of the assay was 100 μL. Hela nuclear extract was diluted HDAC assay buffer (final concentration of 3.0 μg/mL). Enzyme mixture was made of 10 μL of diluted enzyme and 30 μL of HDAC buffer. 40 μl of enzyme mixture followed by 10 μL of test compound (final concentration from 0.01 to 10 μM) or vehicle (control) was added to each well. The plate was pre-incubated at 37° C. for 10 minutes. The HDAC reaction was started by adding 50 μl of HDAC substrate Boc-Lys (Ac)-AMC (Anaspec, Inc Fremont, Calif., USA). The plate was incubated at 37° C. for 45 minutes. The reaction was stopped by adding 50 μL of Trypsin stop solution and plate further incubated at 37° C. for 15 minutes. Measuring the fluorescence at excitation wavelength of 360 nm and emission wavelength of 460 nm monitored the release of AMC. Buffer alone and substrate alone served as blank.

[4] = system: recombinant HDAC isoforms; assay: Isoform selectivity assay (overall statement); conditions: HDAC1, HDAC2, HDAC3, HDAC6, HDAC8
Method: (§1) Following the HDAC inhibition assay using Hela nuclear extract, isoform selectivity was tested using recombinant HDAC isoforms (Biomol, USA).

[5] = biological target: HDAC1 (Homo sapiens, UniProt Q13547); assay: Isoform selectivity assay, recombinant HDAC isoforms
Method: as §1

[6] = biological target: HDAC3 (Homo sapiens, UniProt O15379); assay: as above
Method: as §1

[7] = biological target: HDAC6 (Homo sapiens, UniProt Q9UBN7); assay: as above
Method: as §1

[8] = biological target: HDAC8 (Homo sapiens, UniProt Q9BY41); assay: as above
HDAC8, sequence (Q9BY41 whole entry): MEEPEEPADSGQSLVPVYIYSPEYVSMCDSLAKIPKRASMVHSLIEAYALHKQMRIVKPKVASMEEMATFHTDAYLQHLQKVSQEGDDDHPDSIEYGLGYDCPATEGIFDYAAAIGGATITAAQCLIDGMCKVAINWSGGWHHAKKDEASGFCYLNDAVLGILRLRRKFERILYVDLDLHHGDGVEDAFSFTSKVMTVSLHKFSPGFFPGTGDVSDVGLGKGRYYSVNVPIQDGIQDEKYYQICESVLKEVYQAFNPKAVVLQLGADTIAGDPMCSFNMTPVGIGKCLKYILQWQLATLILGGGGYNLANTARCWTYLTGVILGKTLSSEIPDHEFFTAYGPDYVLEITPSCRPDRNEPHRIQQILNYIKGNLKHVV
Method: as §1

HDAC3, sequence (O15379 whole entry): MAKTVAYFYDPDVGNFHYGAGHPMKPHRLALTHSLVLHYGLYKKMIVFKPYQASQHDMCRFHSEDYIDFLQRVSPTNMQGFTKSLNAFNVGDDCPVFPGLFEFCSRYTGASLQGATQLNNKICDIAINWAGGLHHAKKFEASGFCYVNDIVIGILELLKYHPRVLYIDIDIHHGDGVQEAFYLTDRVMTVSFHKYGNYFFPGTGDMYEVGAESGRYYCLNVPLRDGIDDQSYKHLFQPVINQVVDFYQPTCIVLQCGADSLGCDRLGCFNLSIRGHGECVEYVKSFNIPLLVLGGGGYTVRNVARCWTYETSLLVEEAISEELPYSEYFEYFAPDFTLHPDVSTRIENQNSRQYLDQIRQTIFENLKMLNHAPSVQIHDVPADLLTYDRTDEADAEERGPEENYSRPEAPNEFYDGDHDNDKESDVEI
HDAC6, sequence (Q9UBN7 whole entry): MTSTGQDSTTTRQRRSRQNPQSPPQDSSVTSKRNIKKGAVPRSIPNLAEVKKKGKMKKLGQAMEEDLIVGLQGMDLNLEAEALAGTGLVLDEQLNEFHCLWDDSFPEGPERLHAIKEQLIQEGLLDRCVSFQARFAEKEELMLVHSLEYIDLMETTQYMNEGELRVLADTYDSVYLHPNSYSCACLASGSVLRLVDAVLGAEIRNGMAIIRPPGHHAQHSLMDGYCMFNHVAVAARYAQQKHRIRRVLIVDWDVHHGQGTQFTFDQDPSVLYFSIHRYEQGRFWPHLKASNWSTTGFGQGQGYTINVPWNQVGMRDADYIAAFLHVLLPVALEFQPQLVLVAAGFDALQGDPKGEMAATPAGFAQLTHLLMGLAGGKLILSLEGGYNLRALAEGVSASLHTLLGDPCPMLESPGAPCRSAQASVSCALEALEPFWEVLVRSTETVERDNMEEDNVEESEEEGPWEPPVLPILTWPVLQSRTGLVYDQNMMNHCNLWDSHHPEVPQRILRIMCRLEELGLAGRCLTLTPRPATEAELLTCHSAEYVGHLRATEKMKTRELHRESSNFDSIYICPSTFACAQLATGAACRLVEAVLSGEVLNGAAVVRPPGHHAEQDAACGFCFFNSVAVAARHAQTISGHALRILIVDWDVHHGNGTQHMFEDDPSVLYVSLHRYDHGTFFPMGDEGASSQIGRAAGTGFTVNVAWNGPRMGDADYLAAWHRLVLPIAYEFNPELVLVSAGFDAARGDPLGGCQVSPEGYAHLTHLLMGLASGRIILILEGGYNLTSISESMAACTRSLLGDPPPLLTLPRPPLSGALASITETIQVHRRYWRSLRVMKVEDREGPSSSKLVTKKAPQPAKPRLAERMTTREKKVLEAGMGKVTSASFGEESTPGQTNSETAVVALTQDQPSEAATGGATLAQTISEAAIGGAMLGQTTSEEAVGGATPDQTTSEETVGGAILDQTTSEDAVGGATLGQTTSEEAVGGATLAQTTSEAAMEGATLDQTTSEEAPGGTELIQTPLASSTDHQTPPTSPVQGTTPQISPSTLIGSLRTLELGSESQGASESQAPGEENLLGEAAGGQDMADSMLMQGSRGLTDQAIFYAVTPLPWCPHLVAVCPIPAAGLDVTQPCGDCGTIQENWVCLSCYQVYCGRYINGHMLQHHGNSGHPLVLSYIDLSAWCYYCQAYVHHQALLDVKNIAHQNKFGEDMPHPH
T1 sequence (Q92769 whole entry): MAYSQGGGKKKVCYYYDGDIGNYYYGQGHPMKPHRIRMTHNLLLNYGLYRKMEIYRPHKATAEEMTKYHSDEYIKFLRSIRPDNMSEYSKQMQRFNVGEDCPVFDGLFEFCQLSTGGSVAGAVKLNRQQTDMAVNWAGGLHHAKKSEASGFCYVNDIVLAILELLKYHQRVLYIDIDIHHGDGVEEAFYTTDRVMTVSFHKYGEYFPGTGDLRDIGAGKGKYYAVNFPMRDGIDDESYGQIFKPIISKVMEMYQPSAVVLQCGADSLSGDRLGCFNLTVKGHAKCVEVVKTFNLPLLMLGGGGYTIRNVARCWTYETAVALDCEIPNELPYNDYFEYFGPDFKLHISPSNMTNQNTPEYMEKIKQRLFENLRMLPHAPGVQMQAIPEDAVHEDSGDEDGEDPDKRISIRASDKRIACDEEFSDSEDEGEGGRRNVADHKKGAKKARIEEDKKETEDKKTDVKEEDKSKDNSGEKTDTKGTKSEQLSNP
HDAC1, sequence (Q13547 whole entry, canonical isoform): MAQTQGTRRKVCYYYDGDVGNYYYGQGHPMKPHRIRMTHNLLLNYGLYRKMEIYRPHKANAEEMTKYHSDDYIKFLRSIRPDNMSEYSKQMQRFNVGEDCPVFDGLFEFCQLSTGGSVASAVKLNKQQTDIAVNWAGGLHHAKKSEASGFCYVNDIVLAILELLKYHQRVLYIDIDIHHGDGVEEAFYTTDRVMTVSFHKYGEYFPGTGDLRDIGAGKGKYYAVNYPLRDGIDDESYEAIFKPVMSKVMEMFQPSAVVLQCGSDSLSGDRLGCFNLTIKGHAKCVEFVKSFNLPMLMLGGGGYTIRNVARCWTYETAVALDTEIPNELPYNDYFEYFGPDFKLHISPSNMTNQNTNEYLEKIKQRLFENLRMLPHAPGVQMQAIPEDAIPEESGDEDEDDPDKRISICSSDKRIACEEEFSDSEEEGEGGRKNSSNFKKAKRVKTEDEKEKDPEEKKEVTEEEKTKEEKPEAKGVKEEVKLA

| AUC last 0 to 24 h ([1]; oral 50 mg/kg) | T1/2 ([1]; oral 50 mg/kg) | bioavailability ([1]; plasma, oral 50 mg/kg vs intravenous) | Cmax ([1]; plasma, oral 50 mg/kg) | Tmax ([1]; plasma, oral 50 mg/kg) | SMILES | % TGI on Day 21 ([2]; 150 mg/kg) | IC50 [3] | % TGI on Day 21 ([2]; 12.5 mg/kg, listed as Ex. 8) | % TGI on Day 21 ([2]; 12.5 mg/kg, listed as Ex.8) | % TGI on Day 21 ([2]; 25 mg/kg, listed as Ex. 8) | % TGI on Day 21 ([2]; 25 mg/kg, listed as Ex.8) | % TGI on Day 21 ([2]; 50 mg/kg, listed as Ex. 8) | % TGI on Day 21 ([2]; 50 mg/kg, listed as Ex.8) | body weight compared to the vehicle control group ([2]; 21 days oral treatment) | isoform selectivity [4] | IC50 [5] | IC50 [6] | IC50 [7] | IC50 [8] |
| --- | --- | --- | --- | --- | --- | --- | --- | --- | --- | --- | --- | --- | --- | --- | --- | --- | --- | --- | --- |
| 347 ng·h/mL | 48 min | 11 ± 3% | 580 ng/mL | 4.8 min | O=C(CCCCCCC(=O)Nc1ccccc1)NO [SAHA, Suberoylanilide Hydroxamic Acid, reference compound] | 53.6% |  |  |  |  |  |  |  |  |  |  |  |  |  |
|  |  |  |  |  | O=C(NO)c1ccc(Cn2cc(-c3ccc(CN4CCCC4)cc3)nn2)cc1 [Example 8, N-Hydroxy-4-[4-(4-pyrrolidin-1-ylmethyl-phenyl)-[1,2,3]triazol-1-ylmethyl]-benzamide] |  | 0.029 µM | 27.3% | 27% | 36.9% | 32% | 52.1% | 57% | no significant reduction in body weight | pan-HDAC inhibitor | 0.025 µM | 0.002 µM | 0.011 µM | 0.282 µM |
